We go through 35 compounds from ChEMBL document CHEMBL1140004, “2-Arylimino-5,6-dihydro-4H-1,3-thiazines as a new class of cannabinoid receptor agonists. Part 1: discovery of CB2 receptor selective compounds” (Bioorg Med Chem Lett, 2007).

Active and inactive are the calls of the source. Where only a bound is given, the exact number is not on record here.

T2 sequence (P34972 whole entry): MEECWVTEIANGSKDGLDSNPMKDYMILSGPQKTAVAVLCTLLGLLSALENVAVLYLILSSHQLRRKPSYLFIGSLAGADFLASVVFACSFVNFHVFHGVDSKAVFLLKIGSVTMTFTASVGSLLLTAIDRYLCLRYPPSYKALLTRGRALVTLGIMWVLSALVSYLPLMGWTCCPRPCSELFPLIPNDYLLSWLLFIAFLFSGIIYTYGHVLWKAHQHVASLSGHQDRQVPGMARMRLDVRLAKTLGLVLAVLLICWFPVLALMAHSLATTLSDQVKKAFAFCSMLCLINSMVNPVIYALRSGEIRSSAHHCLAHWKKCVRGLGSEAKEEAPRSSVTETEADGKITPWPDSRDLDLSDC
Chain of Cannabinoid receptor 2 (Mus musculus, UniProt P47936) (P47936 whole entry): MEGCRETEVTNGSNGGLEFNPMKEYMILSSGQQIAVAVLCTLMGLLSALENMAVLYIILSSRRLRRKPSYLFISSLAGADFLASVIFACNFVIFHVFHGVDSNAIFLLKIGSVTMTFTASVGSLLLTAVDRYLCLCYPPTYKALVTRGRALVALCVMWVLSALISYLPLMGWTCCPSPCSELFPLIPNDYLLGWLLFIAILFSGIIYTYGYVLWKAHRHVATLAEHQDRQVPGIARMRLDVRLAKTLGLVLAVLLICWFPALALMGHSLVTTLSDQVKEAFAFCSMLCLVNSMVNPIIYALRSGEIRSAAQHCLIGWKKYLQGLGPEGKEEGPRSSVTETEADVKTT
T1 sequence (P21554 whole entry): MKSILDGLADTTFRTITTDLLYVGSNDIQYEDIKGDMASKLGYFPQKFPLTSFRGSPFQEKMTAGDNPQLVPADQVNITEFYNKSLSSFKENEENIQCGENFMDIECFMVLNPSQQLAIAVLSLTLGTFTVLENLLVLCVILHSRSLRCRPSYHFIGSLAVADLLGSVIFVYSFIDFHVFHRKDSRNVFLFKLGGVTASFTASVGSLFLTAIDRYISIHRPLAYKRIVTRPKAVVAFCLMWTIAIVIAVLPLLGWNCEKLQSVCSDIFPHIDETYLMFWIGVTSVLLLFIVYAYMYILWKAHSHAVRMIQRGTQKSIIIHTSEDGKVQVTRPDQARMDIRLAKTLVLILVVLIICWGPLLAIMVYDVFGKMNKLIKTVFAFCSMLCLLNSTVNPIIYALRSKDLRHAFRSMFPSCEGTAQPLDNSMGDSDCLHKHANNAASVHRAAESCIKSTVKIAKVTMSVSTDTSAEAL

Test system in one series: not listed separately
As to the kind of experiment: Clearance in rat at 2 mg/kg, iv or 30 mg/kg, po. In kind it is ADME, organism-based. Particulars: in vivo.
In turn, `CSC(=S)N1CC(C)(C)CS/C1=N\c1ccccc1C(C)C` returned a clearance of 83.3 mL/min/kg.

A further series deals with Cannabinoid receptor 1 (Mus musculus, UniProt P47746). As to the kind of experiment: Displacement of [3H]CP-55940 from mouse CB1 receptor.
Chain of Cannabinoid receptor 1 (Mus musculus, UniProt P47746) (P47746 whole entry): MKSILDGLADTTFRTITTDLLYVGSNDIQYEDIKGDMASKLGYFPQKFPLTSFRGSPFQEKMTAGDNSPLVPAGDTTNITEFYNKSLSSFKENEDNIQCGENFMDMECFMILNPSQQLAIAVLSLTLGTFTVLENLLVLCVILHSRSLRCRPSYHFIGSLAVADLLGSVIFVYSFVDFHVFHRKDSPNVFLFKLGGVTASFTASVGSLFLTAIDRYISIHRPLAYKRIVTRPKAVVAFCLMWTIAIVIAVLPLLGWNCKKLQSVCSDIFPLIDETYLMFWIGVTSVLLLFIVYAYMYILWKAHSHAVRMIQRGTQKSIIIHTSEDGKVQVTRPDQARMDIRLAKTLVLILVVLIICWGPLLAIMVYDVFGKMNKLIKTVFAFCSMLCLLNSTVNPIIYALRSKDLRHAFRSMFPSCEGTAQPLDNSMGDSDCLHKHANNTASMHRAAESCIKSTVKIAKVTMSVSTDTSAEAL
Conditions: not given
For the compound `CCOC(=O)N1CC(C)(C)CS/C1=N\c1ccccc1C(C)C`, the Ki (in general, the equilibrium dissociation constant of an inhibitor or competing ligand from its target) is more than 5000 nM. In the case of `CSC(=S)N1CC(C)(C)CS/C1=N\c1ccccc1C(C)C`, the Ki worked out at 2020 nM.

Another series has as its target T1, Cannabinoid receptor 1 (Homo sapiens, UniProt P21554). As to the kind of experiment: Displacement of [3H]CP-55940 from human CB1 receptor.
Conditions: not given
On the technique in general: Loss of bound radioactivity is the signal in a displacement assay; it reports binding, not function.
`CCOC(=O)N1CC(C)(C)CS/C1=N\c1ccccc1C(C)C`: the Ki is more than 5 µM.

As to `CSC(=S)N1CC(C)(C)CS/C1=N\c1ccccc1C(C)C`, the Ki is more than 5 µM.

Test system in the next series: not listed separately
As to the kind of experiment: Half life in rat at 2 mg/kg, iv or 30 mg/kg, po. In kind it is ADME, organism-based. As to conditions: in vivo.
With `CSC(=S)N1CC(C)(C)CS/C1=N\c1ccccc1C(C)C`, the half-life (in general, the time needed for the level to fall by half in the phase considered) was 36 min.

Another series addresses T2, Cannabinoid receptor 2 (Homo sapiens, UniProt P34972). As to the kind of experiment: Displacement of [3H]CP-55940 from human CB2 receptor.
Conditions: not given
For the compound `CSC(=S)N1CC(C)(C)CS/C1=N\c1ccccc1C(F)(F)F`, affinity was put at a Ki of 141 nM. That is a sub-micromolar value.

With `CCN1CC(C)(C)CS/C1=N\c1ccccc1C(C)C`, affinity was put at a Ki of 4880 nM. For `CSC(=S)N1CC(C)(C)CS/C1=N\c1c(C)cccc1C`, the Ki is more than 5000 nM. With `CSC(=S)N1CC(C)(C)CS/C1=N\c1ccccc1-c1ccccc1`, the affinity, expressed as Ki, was 989 nM. In turn, `CSC(=S)N1CC(C)(C)CS/C1=N\c1ccccc1Oc1ccccc1` displayed an inhibition constant Ki of 2920 nM. This Ki lies about 3-fold higher than the previous one.

In turn, `CSC(=S)N1CC(C)(C)CS/C1=N\c1ccc(C(C)C)cc1` showed a Ki of 22 nM.

`CCC(=O)N1CC(C)(C)CS/C1=N\c1ccccc1C(C)C` yielded a Ki of 2090 nM.

Compound `CSC(=S)N1CC(C)(C)CS/C1=N\c1ccccc1C(C)(C)C` yielded a Ki of 313 nM. In turn, `CSC(=S)N1CC(C)CS/C1=N\c1ccccc1C(C)C` (stereo unspecified) gave a Ki of 98 nM. This Ki lies about 3.2-fold lower than the previous one. `CSC(=S)N1CC(C)(C)CS/C1=N\c1ccccc1` came in with an inhibitory constant (Ki) of 316 nM.

`CCOC(=S)N1CC(C)(C)CS/C1=N\c1ccccc1C(C)C`: the Ki stood at 230 nM. In turn, `CSC(=S)N1CCC(C)S/C1=N\c1ccccc1C(C)C` (stereo unspecified) yielded a Ki of more than 5000 nM. The compound `CSC(=S)N1CC(C)(C)CS/C1=N\c1ccccc1Br` gave a Ki of 371 nM. Take `CCSC(=S)N1CC(C)(C)CS/C1=N\c1ccccc1C(C)C`: the Ki amounted to 35 nM. Still for that read-out and setting: the result for `CCNC(=S)N1CC(C)(C)CS/C1=N\c1ccccc1C(C)C` reads more than 5000 nM; that for `CSC(=S)N1/C(=N/c2ccccc2C(C)C)SCCC1C` (stereo unspecified), more than 5000 nM.

Take `CSC(=S)N1CC(C)(C)CS/C1=N\c1ccccc1C`: the Ki is 202 nM.

`CC(C)SC(=S)N1CC(C)(C)CS/C1=N\c1ccccc1C(C)C` gave a Ki of 275 nM.

Consider `CCOC(=O)N1CC(C)(C)CS/C1=N\c1ccccc1C(C)C`, for which the inhibition constant (Ki) turned out to be 428 nM. This Ki lies about 1.6-fold higher than the previous one. Same read-out and setting: the result for `CC(C)c1ccccc1/N=C1/NCC(C)(C)CS1` reads more than 5000 nM; that for `COc1ccccc1/N=C1\SCC(C)(C)CN1C(=S)SC`, 18 nM; that for `CCCSC(=S)N1CC(C)(C)CS/C1=N\c1ccccc1C(C)C`, 119 nM. In the case of `CSC(=S)N1CCCS/C1=N\c1ccccc1C(C)C`, affinity was put at a Ki of 1580 nM. `CC(C)c1ccccc1/N=C1\SCC(C)(C)CN1Cc1ccccc1` had a Ki of 1360 nM. On the same count and under the same terms, in the case of `CSC(=S)N1CC(C)(C)CS/C1=N\c1ccccc1F` it was 252 nM. In the case of `CCCc1ccccc1/N=C1\SCC(C)(C)CN1C(=S)SC`, the affinity, expressed as Ki, was 57 nM. For `CSC(=S)N1CC(C)(C)CS/C1=N\c1ccccc1C(C)C`, the affinity, expressed as Ki, was 9 nM. On the same count and under the same terms, in the case of `CCSC(=O)N1CC(C)(C)CS/C1=N\c1ccccc1C(C)C` it was 48 nM; in that of `CSC(=S)N1CC(C)(C)CS/C1=N\c1ccccc1Cl`, 722 nM; in that of `CSC(=S)N1CC(C)(C)CS/C1=N\c1cccc(C(C)C)c1`, 33 nM.

`CCOc1ccccc1/N=C1\SCC(C)(C)CN1C(=S)SC` gave an inhibitory constant (Ki) of 84 nM.

For `CCc1ccccc1/N=C1\SCC(C)(C)CN1C(=S)SC`, the inhibition constant (Ki) was found to be 54 nM. Compared with the last compound, the Ki is about 1.6-fold lower. `CCNC(=O)N1CC(C)(C)CS/C1=N\c1ccccc1C(C)C`: the Ki was more than 5000 nM. Regarding `CCCN1CC(C)(C)CS/C1=N\c1ccccc1C(C)C`, the Ki worked out at 915 nM.

Test system in the next series: not listed separately
As to the kind of experiment: Bioavailability in rat at 30 mg/kg, po. As to conditions: in vivo. It is filed as ADME, organism-based.
On to `CSC(=S)N1CC(C)(C)CS/C1=N\c1ccccc1C(C)C`, for which the bioavailability (usually dose-corrected exposure relative to a reference, in per cent) worked out at 18%.

Test system in a further series: not listed separately
As to the kind of experiment: AUC in rat at 30 mg/kg, po. It is filed as ADME, organism-based. On the set-up: dose 30 mg/kg, route oral. As to conditions: plasma.
On to `CSC(=S)N1CC(C)(C)CS/C1=N\c1ccccc1C(C)C`, for which the AUC (in general, the area under the concentration-time curve, a measure of exposure) stood at 1100 ng·h/mL.

In a further series the test system is Mus musculus. The series can be described thus: Analgesic activity in sc dosed ICR mouse right hind paw in presence of SR-144528 assessed as inhibition of formalin induced licking. It is filed as functional, organism-based.
Conditions: not given
Regarding `CSC(=S)N1CC(C)(C)CS/C1=N\c1ccccc1C(C)C`, the outcome was inactive.

The next series concerns the target T1, Cannabinoid receptor 1. As to the kind of experiment: Agonist activity at human CB1 in CHO cells assessed as inhibition of cAMP production. In kind it is functional, cell-based.
Conditions: not given
Background: Cyclic AMP is a second messenger, typically raised through Gs and lowered through Gi signalling.
As for `CCOC(=O)N1CC(C)(C)CS/C1=N\c1ccccc1C(C)C`, the IC50 (in general, the concentration needed to halve the response being measured) was more than 5 µM. The same measure, in the same setting: the result for `CSC(=S)N1CC(C)(C)CS/C1=N\c1ccccc1C(C)C` reads more than 5 µM.

A further series has as its target Cannabinoid receptor 2 (Mus musculus, UniProt P47936). The series can be described thus: Displacement of [3H]CP-55940 from mouse CB2 receptor.
Conditions: not given
`Cc1c(C(=O)c2cccc3ccccc23)c2cccc3c2n1[C@H](CN1CCOCC1)CO3` [WIN-552122] came in with a Ki of 6 nM. As for `CCOC(=O)N1CC(C)(C)CS/C1=N\c1ccccc1C(C)C`, the affinity corresponds to a Ki of 187 nM. `CSC(=S)N1CC(C)(C)CS/C1=N\c1ccccc1C(C)C` displayed an inhibitory constant (Ki) of 9 nM.

For another series, the target named is T2, Cannabinoid receptor 2. As to the kind of experiment: Agonist activity at human CB2 in CHO cells assessed as inhibition of cAMP production.
Conditions: not given
It is filed as functional, cell-based.
As to `CCOC(=O)N1CC(C)(C)CS/C1=N\c1ccccc1C(C)C`, the half-inhibitory concentration (IC50) came out at 322 nM. Same read-out and setting: in the case of `CSC(=S)N1CC(C)(C)CS/C1=N\c1ccccc1C(C)C` it was 6.1 nM.

For a further series, the system named is Mus musculus. The series can be described thus: Analgesic activity in sc dosed ICR mouse right hind paw of assessed as formalin induced licking. It is filed as functional, organism-based.
Conditions: not given
On to `CSC(=S)N1CC(C)(C)CS/C1=N\c1ccccc1C(C)C`, for which the outcome was Active.
